The text below walks through data of publication PMC3479967 (Evidence-based Complementary and Alternative Medicine : eCAM, 2012).

The target in assay [1] is T1, UGT1A7 (Homo sapiens, UniProt Q9HAW7).
T1 sequence (Q9HAW7 26-530): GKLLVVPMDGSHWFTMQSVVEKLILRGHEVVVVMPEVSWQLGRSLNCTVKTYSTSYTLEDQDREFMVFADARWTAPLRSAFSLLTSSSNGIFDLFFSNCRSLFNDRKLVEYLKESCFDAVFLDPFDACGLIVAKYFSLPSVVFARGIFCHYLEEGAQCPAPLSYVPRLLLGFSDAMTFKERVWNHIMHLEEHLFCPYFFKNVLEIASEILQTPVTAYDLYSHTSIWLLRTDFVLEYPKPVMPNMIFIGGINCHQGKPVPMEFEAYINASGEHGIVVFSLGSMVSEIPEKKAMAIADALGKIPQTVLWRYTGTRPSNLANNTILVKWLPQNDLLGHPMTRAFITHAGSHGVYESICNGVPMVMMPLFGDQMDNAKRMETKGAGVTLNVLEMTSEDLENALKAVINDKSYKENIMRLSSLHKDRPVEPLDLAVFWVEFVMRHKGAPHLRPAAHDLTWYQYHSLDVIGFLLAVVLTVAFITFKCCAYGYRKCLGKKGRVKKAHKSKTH
As to the kind of experiment: Inhibition of recombinant UGT1A7 activity (4-MU glucuronidation). Particulars: recombinant UGT1A7. On the procedure: (§1) A panel of recombinant human UGT supersomes (UGT1A1, UGT1A3, UGT1A4, UGT1A6, UGT1A7, UGT1A8, UGT1A9, UGT1A10, UGT2B4, UGT2B7, UGT2B15, and UGT2B17) expressed in baculovirus-infected insect cells were purchased from BD Gentest Corp. (Woburn, MA, USA).
(§2) 4-MU, a nonselective substrate of UGTs, was used as probe substrate for all UGTs except UGT1A4. Incubations with each individual enzyme were conducted using conditions previously described. There was a 5 min preincubation step at 37°C before the reaction was started by addition of UDPGA. The incubation mixtures were then centrifuged at 20,500 ×g for 15 min to obtain the supernatant. Aliquots (20 μL) were then analyzed by HPLC. The HPLC system (SHIMADZU, Kyoto, Japan) consisted of an SCL-10A system controller, two LC-10AT pumps, a SIL-10A auto injector, and a SPD-10AVP UV detector. Chromatographic separation was achieved using a Kromasil ODS column (4.6 × 150 mm I.D., 5 μm particle size) at a flow rate of 1 mL/min and UV detection at 316 nm. The mobile phase consisted of 10 mM KH2PO4, pH 2.7 (A) and acetonitrile (B). The following gradient was applied at a flow rate of 1 mL/min: 0–4 min 80% A and 20% B, 4.1–8 min 50% A and 50% B, 8.1–12 min, 30% A and 70% B. All experiments were performed in two independent experiments in duplicate.
(§3) A typical incubation mixture contained recombinant human UGTs, 5 mM MgCl2, 5 mM UDPGA, 50 μg/mg protein alamethicin, 50 mM Tris-HCl buffer (pH 7.4), and various probe substrates of UGTs in the absence or presence of different concentrations of inhibitors. […] The final concentration of DMSO in the incubation system was 1% (v/v). […] Known UGT inhibitors were used as positive controls: diclofenac for UGT1A1, UGT1A6, UGT1A7, and UGT1A9; androsterone for UGT1A3, UGT2B7, and UGT2B15, phenylbutazone for UGT1A8 and UGT1A10, and hecogenin for UGT1A4, respectively. There is no positive control reported available for UGT2B4 and UGT2B17. The negative controls are the incubation without UDPGA. […] The final concentration of DMSO in the incubation system was 1% (v/v). […] There was a 5 min preincubation step at 37°C before the reaction was started by the addition of UDPGA. Incubation times were 120 min for UGT1A1, UGT1A10, UGT2B4, UGT2B15, and UGT2B17, 75 min for UGT1A3, and 30 min for UGT1A4, UGT1A6, UGT1A7, UGT1A8, and UGT1A9. The reactions were quenched by adding 100 μL acetonitrile and internal standard. The incubation mixtures were then centrifuged at 20,500 ×g for 15 min to obtain the supernatant. An aliquot of the supernatant was used for HPLC analysis as described above. All experiments were performed in two independent experiments in duplicate.
Inhibition data from experiments were graphically represented by Dixon plots. K i values were calculated by nonlinear regression using the equations for competitive inhibition (1), noncompetitive inhibition (2), or mixed inhibition (3), [22] (1) v =VmaxS/Km(1+(I/Ki))+S, (2) v =VmaxS/(Km+S)(1+(I/Ki)), (3) v =VmaxS/Km (1+(I/Ki))+S(1+(I/αKi)), where v is the velocity of the reaction; S and I are the substrate and inhibitor concentrations, respectively; K i is the inhibition constant describing the affinity of the inhibitor for the enzyme; K m is the substrate concentration at half of the maximum velocity (V max) of the reaction; α reflects the effect of inhibitor on the affinity of the enzyme for its substrate. The type of inhibition was determined from the enzyme inhibition models. Goodness of fit to kinetic and inhibition models was assessed from the F statistic, r ^2 values, parameter standard error estimates, and 95% confidence intervals. Kinetic constants are reported as the mean value ± standard error of the parameter estimate.

In assay [2] the target is T2, UGT1A4 (Homo sapiens, UniProt P22310).
T2 construct: purchased BD Gentest Corp. (Woburn, MA, USA); host or cells: baculovirus-infected insect cells
T2 sequence (P22310 29-534): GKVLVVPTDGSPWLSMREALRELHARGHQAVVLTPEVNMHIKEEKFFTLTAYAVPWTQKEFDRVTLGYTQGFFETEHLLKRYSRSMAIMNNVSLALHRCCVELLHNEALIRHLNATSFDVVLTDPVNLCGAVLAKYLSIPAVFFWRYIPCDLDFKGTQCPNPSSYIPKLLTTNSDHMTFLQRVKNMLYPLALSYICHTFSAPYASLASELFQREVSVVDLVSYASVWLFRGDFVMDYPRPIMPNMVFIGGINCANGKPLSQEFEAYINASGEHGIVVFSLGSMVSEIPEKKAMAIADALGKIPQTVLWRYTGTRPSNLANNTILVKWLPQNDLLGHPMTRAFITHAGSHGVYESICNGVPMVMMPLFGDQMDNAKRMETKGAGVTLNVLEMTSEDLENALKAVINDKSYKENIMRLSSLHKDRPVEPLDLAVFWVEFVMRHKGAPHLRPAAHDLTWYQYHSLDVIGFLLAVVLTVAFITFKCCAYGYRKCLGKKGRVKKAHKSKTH
As to the kind of experiment: Inhibition of recombinant UGT1A4 activity (TFP glucuronidation). Format: biochemical. The settings on record: recombinant UGT1A4. On the procedure: TFP was used as the substrate for UGT1A4. Trifluoperazine glucuronide (TFPG) formation was measured using a modification of the method reported. […] Reactions were initiated by the addition of UDPGA and incubations were performed at 37°C in a shaking water bath for 20 min. Incubations were terminated by the addition of 4% acetic acid/96% methanol (0.2 mL) and then centrifuged at 20,500 ×g for 15 min. A 40 μL aliquot of the supernatant fraction was injected into the HPLC column. […] A gradient mobile phase consisting initially of 30 : 70, mobile phase A (acetonitrile) verse mobile phase B (0.5% formic acid/water) was brought to a composition of 90 : 10 in 10 min which was held for 7 min, all at a flow rate of 1 mL/min. Column eluant was monitored by UV absorbance 256 nm. […] The negative controls are the incubation without UDPGA.

Assay [3] deals with T3, UGT2B7 (Homo sapiens, UniProt P16662).
T3 sequence (P16662 24-529): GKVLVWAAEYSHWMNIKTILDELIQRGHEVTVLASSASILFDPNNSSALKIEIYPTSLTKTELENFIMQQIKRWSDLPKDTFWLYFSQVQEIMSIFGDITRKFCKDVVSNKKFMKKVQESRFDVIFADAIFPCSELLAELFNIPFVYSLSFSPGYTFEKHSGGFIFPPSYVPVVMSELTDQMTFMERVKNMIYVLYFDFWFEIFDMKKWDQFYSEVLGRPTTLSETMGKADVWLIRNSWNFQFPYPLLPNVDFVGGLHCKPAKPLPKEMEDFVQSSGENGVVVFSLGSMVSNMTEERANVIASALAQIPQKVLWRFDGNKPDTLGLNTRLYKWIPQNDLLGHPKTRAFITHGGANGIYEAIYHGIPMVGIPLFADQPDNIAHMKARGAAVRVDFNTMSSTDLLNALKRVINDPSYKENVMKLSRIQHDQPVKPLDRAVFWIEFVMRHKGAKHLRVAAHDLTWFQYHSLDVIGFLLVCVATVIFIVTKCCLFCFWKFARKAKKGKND
As to the kind of experiment: Inhibition of recombinant UGT2B7 activity (4-MU glucuronidation). On the procedure:
as §1, §2, §3
Inhibition data from experiments were graphically represented by Dixon plots. K i values were calculated by nonlinear regression using the equations for competitive inhibition (1), noncompetitive inhibition (2), or mixed inhibition (3), [22] […] The type of inhibition was determined from the enzyme inhibition models. Goodness of fit to kinetic and inhibition models was assessed from the F statistic, r ^2 values, parameter standard error estimates, and 95% confidence intervals. […]

Icariside II: the “Inhibition type against UGT1A7” value in assay [1] is given as “noncompetitive”. Also, the “Inhibition type against UGT1A4” value in assay [2] is given as “competitive”. Further, in assay [3] (recombinant UGT2B7), the “Inhibition type against UGT2B7” value is recorded as “mixed”. Further, in assay [3] (recombinant UGT2B7, mixed inhibition model), the “α of mixed inhibition against UGT2B7” value was 3.3.
